Laboratory results taken from US6017933A, “Mannich bases of conjugated styryl ketones” (University of Saskatchewan Technologies Inc., priority 1999, dated 2000).
Values after ≈ are worked out from the molar mass of the structure shown. “Also recorded” adds a separate entry of the source. Where two headings read alike, the source gives them in different places.

Tests used:
[1] = system: Candida albicans; conditions: C. albicans; cited from earlier work
[2] = system: P388 lymphocytic leukemia; assay: Murine P388 lymphocytic leukemia in vivo screen
Protocol: In order to evaluate whether these promising results could be translated into in vivo activity, two representative compounds 9d and 10a were chosen. […] These two compounds were examined in the murine P388 screen and against certain human tumors in athymic mice.
(§1) The compounds were examined by the Developmental Therapeutics Program, National Cancer Institute, U.S.A. The murine P388 lymphocytic leukemia assay was conducted by a reported known method and the maximum ILS figures for 9d and 10a were 5 and 20% respectively using doses of 54 and 6.7 mg/kg respectively. An increase of 20% or more in the life spans is considered to be statistically significant. A reference drug 5-fluorouracil has an ILS of >35 using a dose of 20 mg/kg when given intraperitoneally for five days. Passage of human tumors in athymic mice was undertaken by a known method. No definitions of activity are available but as a general rule compounds causing a 60% reduction in tumor weights in one of these screens would be evaluated further.

[3] = system: COLO 205; assay: COLO 205 human colon tumor xenograft in athymic mice; format: in vivo; conditions: COLO 205; 16.8 mg/kg
Protocol: as §1

[4] = system: KM12; assay: KM12 human colon tumor xenograft in athymic mice; format: in vivo
Protocol: as §1

[5] = system: CAKI-1; assay: CAKI-1 human renal tumor xenograft in athymic mice; format: in vivo; conditions: 16.8 mg/kg
Protocol: as §1

[6] = system: P388 cells; assay: Cytotoxicity, murine P388 leukemic cells (P388 D1); conditions: read-out: P388 cells IC50
[7] = system: human tumors; assay: Cytotoxicity, human tumor cell line panel (approximately 55 lines); conditions: for IC50: read-out: human tumors IC50, mean graph midpoint, approximately 55 cell lines, hydrobromide salts used for 4a, 11a-e
[8] = system: Aspergillus fumigatus conidia; assay: Kill-curve experiment, Aspergillus fumigatus conidia; format: cell-based; conditions: Aspergillus fumigatus; 5 μm AMB or 5 μm ITZ, within 24 hr
Protocol: Kill-Curve Experiment: 5 ml conidial suspension each of the AMB-, and ITZ-susceptible (W73355) and the resistant (AB16.4 and ITZ70) isolates prepared in PYG broth (1×10^6 conidia/ml) was incubated at 35° C. in the presence of 5 μm of AMB or 5 μm ITZ or 50 μm Compound 9b. At various time intervals, 0.1 ml aliquots of the conidial suspension were removed, diluted appropriately to obtain 10^2 to 10^4 fold dilution, and 0.1 ml aliquots were spread in duplicate on PYG agar plates. […] Identical treatment of the conidial suspension in the absence of the drug was used as the growth control.

[9] = system: Aspergillus fumigatus; assay: Murine pulmonary aspergillosis model; format: in vivo, Aspergillus fumigatus in DBA/2J female mice; conditions: 2 mg/kg/day
Protocol: In vivo susceptibility studies: DBA/2J female mice (Jackson Laboratories) weighing 20-23 grams (≈6 weeks old) were used. The mice were immunosuppressed by 3 consecutive subcutaneous injections (0.5 ml each) of cortisone acetate (250 mg/kg; Sigma Chemical Company) in sterile distilled water containing 0.1% Tween 80. The immunosuppressed mice were anesthetized by exposing to ether in a desiccator for 45±5 seconds and infected with 20 μl inoculum containing 1×10^6 conidia delivered to the nares of the animals as a single droplet from a micropipet. Compound 9b and AMB were dissolved in dimethyl sulfoxide (DMSO) and administered 24 hr post infection by intraperitoneal injection in 0.2 ml PBS per dose. […] The efficacy of chemotherapy was assessed by determining percent survival and the fungal load (CFU/lungs) of infected animals as determined by semiquantitative organ culture.

[10] = system: Aspergillus fumigatus; assay: MIC and MLC, Aspergillus fumigatus, broth macrodilution; conditions: Aspergillus fumigatus, 48 h
[11] = system: AMB-resistant Aspergillus fumigatus; assay: MIC and MLC, AMB-resistant Aspergillus fumigatus, broth macrodilution; conditions: 48 h
[12] = system: ITZ-resistant Aspergillus fumigatus; assay: MIC and MLC, ITZ-resistant Aspergillus fumigatus, broth macrodilution; conditions: 48 h
[13] = system: human Jurkat T cells; assay: Growth inhibition of Jurkat T cells, trypan blue exclusion test; format: cell-based; conditions: 48 h, read-out: growth of Jurkat T cells inhibited by 50% (IC50)
Protocol: All cell cultures used were maintained in RPMI 1640 medium, pH 7.4 supplanted with 10% fetal bovine serum and 50 μg/ml of gentamycin in 25 ml culture flasks at 37° C. in a humidified gas mixture of 5% carbon dioxide balanced with air and were passaged three times a week.
Cell viability was determined by the trypan blue exclusion test according to a literature procedure (Duke and Cohen, 1992). […] A flask containing ~10^6 cells/ml and 8 or […] of DMSO was used as the control. […] After 48 hours, cells were counted using a haemocytometer. The percentage of growth inhibition was calculated as follows: (C-T/C)×100 where C is the mean cell number in the control and T is the mean cell number in each treatment. […] All experiments were performed in triplicate.

[14] = system: human Jurkat T cells; assay: DNA fragmentation by agarose gel electrophoresis; format: cell-based; conditions: Compound 9d 6 and 10 μM; melphalan 10 μM
[15] = system: CEM cells; assay: Cytotoxicity, CEM human T-lymphocytes; conditions: for TIL1210 (CEM cells): IC50 T-lymphocytes (CEM)/IC50 L1210; for TIP388 (CEM cells): IC50 T-lymphocytes (CEM)/IC50 P388; for TIht (CEM cells): IC50 T-lymphocytes (CEM)/IC50 human tumors; for IC50: Homo sapiens, CCRF-CEM, read-out: CEM cells IC50
[16] = system: human Jurkat T cells; assay: Apoptosis, fluorescence microscopy with acridine orange and ethidium bromide
[17] = system: L1210 cells; assay: Cytotoxicity, murine L1210 leukemic cells; format: cell-based; conditions: Mus musculus, mean
[18] = system: human tumors
[19] = system: Molt 4/C8 cells; assay: Cytotoxicity, Molt 4/C8 human T-lymphocytes; conditions: for TIL1210 (Molt 4/C8 cells): IC50 T-lymphocytes (Molt 4/C8)/IC50 L1210; for TIP388 (Molt 4/C8 cells): IC50 T-lymphocytes (Molt 4/C8)/IC50 P388; for TIht (Molt 4/C8 cells): IC50 T-lymphocytes (Molt 4/C8)/IC50 human tumors; for IC50: read-out: Molt 4/C8 cells IC50
[20] = system: P388 lymphocytic leukemia; conditions: 20 mg/kg intraperitoneally for five days; cited from earlier work
[21] = system: COLO 205; conditions: in vivo; cited from earlier work
[22] = system: SW-620; conditions: in vivo; cited from earlier work
[23] = system: NCI-H522; conditions: in vivo; cited from earlier work
[24] = system: LOX IMVI; conditions: in vivo; cited from earlier work
[25] = system: CAKI-1; conditions: in vivo; cited from earlier work

Structure (SMILES) | IC50 [6] [µM] | IC50 [7] [µM] | TIL1210 (CEM cells) [15] | TIP388 (CEM cells) [15] | TIht (CEM cells) [15] | IC50 [17] [µM] | IC50 [15] [µM] | TIL1210 (Molt 4/C8 cells) [19] | TIP388 (Molt 4/C8 cells) [19] | TIht (Molt 4/C8 cells) [19] | IC50 [19] [µM] | other results
OC(Cn1cncn1)(Cn1cncn1)c1ccc(F)cc1F [fluconazole] | – | – | – | – | – | – | – | – | – | – | – | mean MIC [1]: approximately 0.8 μm
CC[N+]1(C)CCC(O)(/C=C/c2ccccc2)C(C(=O)/C=C/c2ccccc2)C1 (centres unmarked) [Compound 10a] | 2.27 | 8.31 | – | – | – | – | – | – | – | – | – | maximum ILS / increase in life span, murine P388 ([2]; 6.7 mg/kg): 20%; activity in the murine P388 screen ([2]; in words): marginal potency; % ILS [3]: 14%; percent reduction in median tumor weight [3]: 20%; % T/C ([4]; 16.8 mg/kg): 45%; % ILS ([4]; 25 mg/kg): 5%; % ILS [5]: 6%; % T/C [5]: 43%; Selective toxicity towards leukemia ([7]; human tumor screen): Selective toxicity towards leukemia was observed; also recorded: preferential cytotoxicity to colon and leukemic cells respectively
C[C@@H]1[C@H](O)[C@@H](C)/C=C/C=C/C=C/C=C/C=C/C=C/C=C/[C@H](O[C@@H]2O[C@H](C)[C@@H](O)[C@H](N)[C@@H]2O)C[C@@H]2O[C@](O)(C[C@@H](O)C[C@@H](O)[C@H](O)CC[C@@H](O)C[C@@H](O)CC(=O)O[C@H]1C)C[C@H](O)[C@H]2C(=O)O [Amphotericin B] | – | – | – | – | – | – | – | – | – | – | – | killing at 5 µM [8]: ≥ 99%; reduction of CFU/lung [9]: ≈ 66%; mean MIC [1]: ~0.6 μm; MIC ([10]; read-out: MIC Mean ± SD): 1.32 ± 0.63 µM (≈ 1.22 µg/mL); MIC ([10]; read-out: MIC Range): 0.55 to 2.22 µM (≈ 0.508 to 2.05 µg/mL); MIC ([11]; read-out: MIC Mean ± SD): 6.64 ± 3.47 µM (≈ 6.14 µg/mL); MIC ([11]; read-out: MIC Range): 4.42 to 17.7 µM (≈ 4.08 to 16.4 µg/mL); MIC ([12]; read-out: MIC Mean ± SD): 0.7 ± 0.39 µM (≈ 0.647 µg/mL); MIC ([12]; read-out: MIC Range): 0.27 to 1.11 µM (≈ 0.25 to 1.03 µg/mL)
N[C@@H](Cc1ccc(N(CCCl)CCCl)cc1)C(=O)O [melphalan, reference compound] | – | 26.3 | 1.16 | 11.23 | 0.09 | – | – | – | – | – | – | IC50 [13]: 1.16 µM; DNA ladder / DNA fragmentation [14]: A faint DNA ladder could be seen; time after which apoptotic effects were detectable [16]: 3 h; percentage of apoptotic cells ([16]; 10 μM, 17 hours, control 4.4%): 24%; death of treated cells ([16]; 48 hours): all the treated cells had died
CC[N+]1(C)CCC(O)(/C=C/c2ccc(Cl)c(Cl)c2)C(C(=O)/C=C/c2ccc(Cl)c(Cl)c2)C1 (centres unmarked) [Compound 10c] | 0.64 | 2.19 | 0.77 | 25.78 | 7.53 | 21.4 | 16.5 | 1.12 | 37.56 | 10.98 | 24 | activity relative to compound 12c, human tumors [18]: 4.36 times
O=c1[nH]cc(F)c(=O)[nH]1 [5-fluorouracil] | – | – | – | – | – | – | – | – | – | – | – | ILS, murine P388 (reference drug) [20]: > 35
CCC(C)n1ncn(-c2ccc(N3CCN(c4ccc(OCC5COC(Cn6cncn6)(c6ccc(Cl)cc6Cl)O5)cc4)CC3)cc2)c1=O (centres unmarked) [Itraconazole] | – | – | – | – | – | – | – | – | – | – | – | killing at 5 µM [8]: 85%; MIC ([10]; read-out: MIC Mean ± SD): 0.53 ± 0.16 µM (≈ 0.374 µg/mL); MIC ([10]; read-out: MIC Range): 0.18 to 0.72 µM (≈ 0.127 to 0.508 µg/mL); MIC ([11]; read-out: MIC Mean ± SD): 0.82 ± 0.35 µM (≈ 0.579 µg/mL); MIC ([11]; read-out: MIC Range): 0.32 to 1.29 µM (≈ 0.226 to 0.91 µg/mL); MIC ([12]; read-out: MIC Mean ± SD): 17.2 ± 5.83 µM (≈ 12.2 µg/mL); MIC ([12]; read-out: MIC Range): 5.19 to 20.8 µM (≈ 3.66 to 14.7 µg/mL)
O=P1(N(CCCl)CCCl)NCCCO1 (centres unmarked) [cyclophosphamide] | – | – | – | – | – | – | – | – | – | – | – | activity towards COLO 205 xenograft [21]: inactive; activity towards SW-620 xenograft [22]: inactive; activity towards NCI-H522 xenograft [23]: inactive; reduction of growth of LOX IMVI tumor [24]: 100-150%; reduction of growth of CAKI-1 tumor [25]: 60-100%
CCN1CCC(O)(c2ccccc2)C(C(=O)c2ccccc2)C1 (centres unmarked) [Compound 11a] | 1.07 | 30.2 | 2.28 | 42.70 | 1.51 | 20.1 | 45.7 | 1.80 | 33.78 | 1.20 | 36.1 | –
CCN1CCC(O)(c2ccc(C)cc2)C(C(=O)c2ccc(C)cc2)C1 (centres unmarked) [Compound 11d] | 8.6 | 25.1 | 1.01 | 4.50 | 1.54 | 38.2 | 38.7 | 0.89 | 3.97 | 1.36 | 34.2 | –
